Assay results: patent publication US20240058311A1, “USE OF SMO INHIBITOR IN PREPARATION OF DRUG FOR PREVENTING, DELAYING OR A[…] STENOSIS OF ART[…]” (JINAN UNIVERSITY, priority 2022, published 2024)

Columns and labels:
[1] = system: IL-6; assay: Western blot of IL-6 in high glucose-treated HUVECs; format: cell-based, human; details: western blot (FIG. 7D, 7E)
[2] = system: IL-6; assay: ELISA of IL-6 in peripheral blood plasma of rats; format: in vivo, rat; details: 1 mg/kg/day i.p., vs DM group (FIG. 14C)
Description: (§1) Peripheral blood samples of rats were collected, and plasma was separated. The concentration of cytokines (TNF-α, MCP-1, and IL-6) in plasma was determined using an ELISA kit (Jiangsu Enzyme Immune Industrial Co., Ltd., China).
(§2) Weight and blood glucose of rats were measured every week during the experiment, peripheral blood was extracted at specific time points (0, 1, and 14 weeks) for analysis, and AVF tissues were isolated at the end of the experiment for further analysis.

[3] = system: Cleaved caspase 3; assay: Immunohistochemistry of Cleaved caspase 3 in vascular tissue around the fistula; format: in vivo, rat; details: 1 mg/kg/day i.p., vs DM group (FIG. 13)
[4] = system: HUVECs; assay: Lactate dehydrogenase (LDH) assay in HUVECs under high glucose; format: cell-based, human; details: HG, after intervention with Cyc (FIG. 6C)
Description: HUVECs were inoculated in a 6-well plate (1×10^6 cells/well) and treated in different glucose conditions. After 48 hours of culture, the supernatant was collected, and the LDH activity was analyzed using an LDH cytotoxicity assay kit.

[5] = system: TNF-α; details: HUVECs
Description: (§8) The total RNA was extracted from HUVECs by the Trizol method. The cDNA was synthesized using Evo M-MLV RT Premix premix for qPCR. Fluorescence quantitative PCR was carried out using gene-specific primers (Table 1) and SYBR® Green Premix Pro Taq HS qPCR Kit. The relative mRNA expression quantity was calculated by 2^−ΔΔCT method.

[6] = system: MCP-1; assay: Western blot of MCP-1 in vascular endothelial cells from rat AVF tissue; format: in vivo; details: vascular endothelial cells isolated from rat AVF tissue, 1 mg/kg/day i.p. (FIG. 14D, 14G)
Description: (§3) After the experiment was finished, the AVF tissues of the rats were collected and digested with enzymes to separate vascular endothelial cells. The vascular endothelial cells were lysed with the mixture liquid of RIPA lysis buffer and the phosphatase inhibitor and centrifuged to collect the supernatant. The protein concentration was measured, and the protein samples were prepared. Electrophoresis was carried out, and the membrane was transferred at 260 mA for 60 minutes. The transferred PVDF membranes were soaked with TBST buffer containing 5% skimmed milk powder, blocked at room temperature at a rotation rate of 60 rpm for 1 hour, and gently washed with TBST buffer 3 times, each time lasting 8-10 minutes. The corresponding diluents of primary antibodies (SMO, Cascpase3, TNF-α, MCP-1, and IL-6) were added, where the dilution ratio was determined according to the requirements of each antibody, and the PVDF membranes were incubated overnight in a shaker at 4° C. and cleaned with TBST buffer 3 times the next day, each time lasting 8-10 minutes. […] Development: Luminescent liquid A and liquid B were mixed according to the ratio of 1:1, the residual water on the PVDF membranes was gently absorbed with filter papers, the mixed luminescent liquid was uniformly dropped on the PVDF membranes, and the western blot results were analyzed on a gel imager.

[7] = system: SMO; assay: Immunohistochemistry of SMO in vascular tissue around the fistula; format: in vivo, rat; details: 1 mg/kg/day i.p., vs DM group (FIG. 13)
Description: (§4) The paraffin-embedded tissue sections were stained with HE. Blood vessel tissue samples were dewaxed and rehydrated, and antigen retrieval and IHC staining were carried out. Tissue sections were blocked at room temperature for at least 1 hour and incubated overnight with antibodies of TNF-α, MCP1, IL-6, and SMO at 4° C. After careful cleaning, tissue sections were detected using a DAB-HRP method and observed with a microscope. Quantitative analysis was carried out according to the percentage of […] cells and the staining intensity.

[8] = system: TNF-α; assay: ELISA of TNF-α in HUVEC culture supernatant; format: cell-based, human; details: HUVECs treated with 10 μM, ELISA (FIG. 8B)
Description: (§5) HUVECs were inoculated into a 6-well plate and treated with glucose of different concentrations. After 48 hours, the supernatant was collected, and the expression of inflammatory cytokines TNF-α, MCP-1. and IL-6 in the supernatant was detected using TNF-α, MCP-1 and IL-6 ELISA kits according to instructions of the kits, respectively.

[9] = system: IL-6; assay: Western blot of IL-6 in vascular endothelial cells from rat AVF tissue; format: in vivo; details: vascular endothelial cells isolated from rat AVF tissue, 1 mg/kg/day i.p. (FIG. 14D, 14E)
Description: as §3

[10] = system: IL-6; assay: Immunohistochemistry of IL-6 in vascular tissue around the fistula; format: in vivo, rat; details: 1 mg/kg/day i.p., vs DM group (FIG. 13)
Description: as §4

[11] = system: IL-6; assay: ELISA of IL-6 in HUVEC culture supernatant; format: cell-based, human; details: HUVECs treated with 10 μM, ELISA (FIG. 8A)
Description: as §5

[12] = system: MCP-1; assay: Western blot of MCP-1 in high glucose-treated HUVECs; format: cell-based, human; details: western blot (FIG. 7D, 7G)
[13] = system: HUVECs; assay: Apoptosis detection (AnnexinV-FITC/PI) in HUVECs under high glucose; format: cell-based, human; details: high glucose conditions (FIG. 6D)
Description: HUVECs were inoculated into a 6-well plate and treated with different concentrations of glucose. After 48 hours of culture, the cells were collected, washed twice with cold PBS, and suspended to 1×10^6 cells/mL with a labeling buffer (1×), and 5 μL of AnnexinV-FITC and 5 μL of propidium iodide (PI) were added. The cells were mixed evenly and incubated at room temperature away from light for about 15 minutes. 300 μL of labeling buffer was added to each tube, and samples were loaded within 1 hour. Annexin-V and PI were used to label early and late apoptotic cells, respectively. […] PI is a kind of nucleic acid dye, cannot penetrate the whole cell membrane, but can penetrate the cell membrane of cells in the middle and late apoptosis and dead cells to stain the nucleus.

[14] = system: diabetic AVF rats; assay: Hematoxylin-eosin staining of vascular tissue at AVF anastomosis; format: in vivo, rat; details: HE staining at AVF anastomosis, 1 mg/kg/day i.p., vs DM group (FIG. 12)
Description: as §4
(§6) Male SD rats which were aged 6-8 weeks and weighed 200-250 g were purchased from Beijing Vital River Laboratory Animal Technology Co., Ltd. In order to induce diabetes, the rats fasted overnight. Streptozotocin (STZ) (US, sigma, S0130-1G) (65 mg/kg) was dissolved in the citric acid buffer solution (0.1 M citric acid and 0.1 M sodium citrate) and single injected intraperitoneally into the abdominal cavity of the rats. The control group was administrated with an equal volume of the mediator-sodium citrate buffer (pH 4.5). Three days after the STZ injection, SD rats whose fasting-blood glucose (FPG) was greater than or equal to 300 mg/dL measured by Roche glucometer (Roche, Shanghai, China, LKBIO1500) were considered to have diabetes and used in follow-up experiments (FIG. 10).
After the construction of the diabetic model. […]

[15] = system: TNF-α; assay: ELISA of TNF-α in peripheral blood plasma of rats; format: in vivo, rat; details: 1 mg/kg/day i.p., vs DM group (FIG. 14A)
Description: as §1, §2

[16] = system: diabetic AVF rats; assay: Ultrasonic examination of AVF in diabetic AVF rats; format: in vivo, rat; details: 1 mg/kg/day i.p.
Description: as §6
After the construction of the diabetic model. SD rats were used to construct the AVF model. Rats were anesthetized by intraperitoneal injection of chloral hydrate (0.3 mL/100 g) and placed on the operating table during the operation. The iliac vascular area was exposed by cutting a 3 cm incision along the left inguinal fold and retracting abdominal muscle tissue and other soft tissue. The operation was carried out under a microscope, and the iliac artery and vein were separated from the surrounding fascia and nerves.

[17] = system: SMO; assay: Western blot of SMO in vascular endothelial cells from rat AVF tissue; format: in vivo; details: vascular endothelial cells isolated from rat AVF tissue, 1 mg/kg/day i.p. (FIG. 14D, 14H)
Description: as §3

[18] = system: SMO; details: HUVECs, high glucose; 10 μM; compared with Vis and Gla at the same dosage (FIG. 5A)
Description: as §8

[19] = system: MCP-1; details: HUVECs
Description: as §8

[20] = system: MCP-1; assay: ELISA of MCP-1 in peripheral blood plasma of rats; format: in vivo, rat; details: 1 mg/kg/day i.p., vs DM group (FIG. 14B)
Description: as §1, §2

[21] = Body weight of diabetic AVF rats; format: in vivo, rat; details: 1 mg/kg/day intraperitoneal, DM+Cyc vs DM group (FIG. 9)
Description: as §6
(§7) After the construction of the diabetic model. SD rats were used to construct the AVF model. Rats were anesthetized by intraperitoneal injection of chloral hydrate (0.3 mL/100 g) and placed on the operating table during the operation. […]
as §2

[22] = system: MCP-1; assay: ELISA of MCP-1 in HUVEC culture supernatant; format: cell-based, human; details: HUVECs treated with 10 μM, ELISA (FIG. 8C)
Description: as §5

[23] = system: TNF-α; assay: Immunohistochemistry of TNF-α in vascular tissue around the fistula; format: in vivo, rat; details: 1 mg/kg/day i.p., vs DM group (FIG. 13)
Description: as §4

[24] = system: MCP-1; assay: Immunohistochemistry of MCP-1 in vascular tissue around the fistula; format: in vivo, rat; details: 1 mg/kg/day i.p., vs DM group (FIG. 13)
Description: as §4

[25] = system: TNF-α; assay: Western blot of TNF-α in high glucose-treated HUVECs; format: cell-based, human; details: western blot (FIG. 7D, 7F)
[26] = Blood glucose level of diabetic AVF rats; format: in vivo, rat; details: 1 mg/kg/day intraperitoneal, DM+Cyc vs DM group (FIG. 10)
Description: as §6, §7, §2

[27] = system: TNF-α; assay: Western blot of TNF-α in vascular endothelial cells from rat AVF tissue; format: in vivo; details: vascular endothelial cells isolated from rat AVF tissue, 1 mg/kg/day i.p. (FIG. 14D, 14F)
Description: as §3

[28] = system: IL-6; details: HUVECs
Description: as §8

[29] = system: PECs; assay: Apoptosis detection in cultured PECs under high glucose; format: cell-based; details: high glucose conditions (FIG. 6E)

Q: With `CC1=C2C[C@H]3[C@@H](CC=C4C[C@@H](O)CC[C@@]43C)[C@@H]2CC[C@]12O[C@@H]1C[C@H](C)CN[C@H]1[C@H]2C` [Cyc, Cyclopamine] as the compound, how does the “expression of IL-6 at protein level” value [1] read?
A: inhibit

Q: What about the IL-6 in plasma [2] of the same compound?
A: significantly reduced

Q: What about the “expression level of Cleaved caspase 3 (immunohistochemistry)” value [3] of the same compound?
A: significantly inhibited

Q: What about the “LDH in HUVECs” value [4] of the same compound?
A: reduced

Q: And the “expression of TNF-α at mRNA level” value ([5]; glucose 5.5-40 mM (FIG. 7B))?
A: inhibit

Q: What about the “inhibiting the expression of TNF-α” value ([5]; high glucose, 10 μM, compared with Vis and Gla at the same dosage (FIG. 5D)) of the same compound?
A: best effect

Q: What about the “expression level of MCP-1 (western blot)” value [6] of the same compound?
A: significantly reduced

Q: And the “expression level of SMO (immunohistochemistry)” value [7]?
A: significantly inhibited

Q: And the “level of TNF-α in cell culture supernatant” value [8]?
A: decreased

Q: What about the “expression level of IL-6 (western blot)” value [9] of the same compound?
A: significantly reduced

Q: And the “expression level of IL-6 (immunohistochemistry)” value [10]?
A: significantly inhibited

Q: And the “level of IL-6 in cell culture supernatant” value [11]?
A: decreased

Q: What about the “expression of MCP-1 at protein level” value [12] of the same compound?
A: inhibit

Q: And the “apoptosis of HUVECs” value [13]?
A: significantly reduced

Q: And the “intima of blood vessels” value [14]?
A: improved

Q: What about the “lumen of blood vessels” value [14] of the same compound?
A: significantly enlarged

Q: What about the TNF-α in plasma [15] of the same compound?
A: significantly reduced

Q: What about the blood flow ([16]; color Doppler ultrasound near AVF anastomotic stoma, DM+Cyc vs untreated DM group (FIG. 11A)) of the same compound?
A: faster

Q: And the “diameter of blood vessels in the fistula” value ([16]; ultrasound at AVF anastomosis, DM+Cyc vs untreated group (FIG. 11B))?
A: increased significantly

Q: And the “expression level of SMO (western blot)” value [17]?
A: significantly reduced

Q: What about the “inhibiting the expression of SMO” value [18] of the same compound?
A: best effect

Q: And the “expression of MCP-1 at mRNA level” value ([19]; glucose 5.5-40 mM (FIG. 7C))?
A: inhibit

Q: What about the “inhibiting the expression of MCP-1” value ([19]; high glucose, 10 μM, compared with Vis and Gla at the same dosage (FIG. 5E)) of the same compound?
A: best effect

Q: What about the MCP-1 in plasma [20] of the same compound?
A: significantly reduced

Q: And the body weight [21]?
A: remained stable over time

Q: And the “level of MCP-1 in cell culture supernatant” value [22]?
A: decreased

Q: What about the “expression level of TNF-α (immunohistochemistry)” value [23] of the same compound?
A: significantly inhibited

Q: What about the “expression level of MCP-1 (immunohistochemistry)” value [24] of the same compound?
A: significantly inhibited

Q: And the “expression of TNF-α at protein level” value [25]?
A: inhibit

Q: What about the blood glucose level [26] of the same compound?
A: lower than that of the DM group

Q: And the “expression level of TNF-α (western blot)” value [27]?
A: significantly reduced

Q: And the “expression of IL-6 at mRNA level” value ([28]; glucose 5.5-40 mM (FIG. 7A))?
A: inhibit

Q: What about the “inhibiting the expression of IL-6” value ([28]; high glucose, 10 μM, compared with Vis and Gla at the same dosage (FIG. 5C)) of the same compound?
A: best effect

Q: And the “apoptosis of cultured PECs” value [29]?
A: significantly reduced
